Here are results for 19 compounds from patent US8119647B2, “Fused pyrimidineone compounds as TRPV3 modulators” (Glenmark Pharmaceuticals S.A., priority 2008, dated 2012).

For the assay, the target named is T1, Human TRPV3 (Homo sapiens, UniProt Q8NET8).
T1 construct: expressed in transfected cells; host or cells: CHO cells (G-418 selection)
T1 sequence (Q8NET8 1-790): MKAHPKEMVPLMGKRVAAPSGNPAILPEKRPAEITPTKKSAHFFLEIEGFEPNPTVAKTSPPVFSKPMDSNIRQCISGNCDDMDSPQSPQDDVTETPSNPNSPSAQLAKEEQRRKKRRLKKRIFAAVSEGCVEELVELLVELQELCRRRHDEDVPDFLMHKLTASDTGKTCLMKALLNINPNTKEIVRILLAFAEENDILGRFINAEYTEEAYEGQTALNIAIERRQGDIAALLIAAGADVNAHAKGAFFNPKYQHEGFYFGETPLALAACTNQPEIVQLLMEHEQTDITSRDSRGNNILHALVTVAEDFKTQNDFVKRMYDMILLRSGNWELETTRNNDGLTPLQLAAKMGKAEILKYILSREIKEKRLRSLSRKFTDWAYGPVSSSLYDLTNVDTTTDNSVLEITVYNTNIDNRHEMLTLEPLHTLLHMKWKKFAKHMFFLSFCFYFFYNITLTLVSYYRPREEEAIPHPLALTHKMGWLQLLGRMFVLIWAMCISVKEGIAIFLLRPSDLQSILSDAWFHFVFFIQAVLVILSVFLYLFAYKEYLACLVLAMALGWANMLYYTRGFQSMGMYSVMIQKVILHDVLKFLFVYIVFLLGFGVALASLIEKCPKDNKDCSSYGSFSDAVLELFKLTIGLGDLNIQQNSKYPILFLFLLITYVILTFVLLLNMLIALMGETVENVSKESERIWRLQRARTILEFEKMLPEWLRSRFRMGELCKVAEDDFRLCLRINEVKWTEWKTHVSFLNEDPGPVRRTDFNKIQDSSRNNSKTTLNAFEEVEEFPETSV
The assay can be described thus: Screening for TRPV3 antagonist using the 45Calcium uptake assay (inhibition of 2-APB induced cellular uptake of radioactive calcium). The assay is classed as cell-based. As to conditions: human TRPV3 expressing CHO cells, 2-APB 500 μM; for inhibition at 1 µM / Percentage inhibition at 1.0 μM: 1.0 μM test compound; for inhibition at 1 µM: read-out: Percentage inhibition at 1.0 μM; for inhibition at 10 µM / Percentage inhibition at 10.0 μM: 10.0 μM test compound; for inhibition at 10 µM: read-out: Percentage inhibition at 10.0 μM; for IC50: class symbols. The text has this:
The illustrative examples of the present invention are screened for TRPV3 activity according to a modified procedure described in Tóth, A., Kedei, N., Wang, Y. and Blumberg, P. M. Life Sciences (2003), 73, 487-498. The screening of the compounds can be carried out by other methods and procedures known to a person skilled in the art. Such screening methods may be found in (a) Hu, H.-Z. et al. J. Biol. Chem. (2004), 279, 35741-35747; (b) Smith, G. D. et al. Nature (2002), 418, 186-190; (c) Peier, A. M. et al. Science (2002), 296, 2046-2049.
Screening for TRPV3 Antagonist Using the ^45Calcium Uptake Assay:
The inhibition of TRPV3 receptor activation was followed as inhibition of 2-aminoethoxydiphenylborate (2-APB) induced cellular uptake of radioactive calcium. Test compounds were dissolved in dimethyl sulfoxide (DMSO) to prepare 20 mM stock solution and then diluted using plain medium with DMEM/F-12 containing 1.8 mM CaCl2 to get desired concentration. Final concentration of DMSO in the reaction was 0.5% (v/v). Human TRPV3 expressing CHO cells were grown in DMEM/F-12 medium with 10% FBS, 1% penicillin-streptomycin solution, 400 μg/ml of G-418. Cells were seeded 24 h prior to the assay in 96 well plates so as to get ˜50,000 cells per well on the day of experiment. Cells were treated with test compounds for 10 minutes followed by addition of 2-APB at a final concentration of 500 μM and 5 μCi/ml ^45Ca^+2 for 4 minutes. Cells were washed and lysed using buffer containing 1% Triton X-100, 0.1% deoxycholate and 0.1% SDS. Radioactivity in the lysate was measured in Packardt Top count after addition of liquid scintillant. Concentration response curves were plotted as a % of maximal response obtained in the absence of test antagonist. IC50 value was calculated from concentration response curve by nonlinear regression analysis using GraphPad PRISM software.
Percentage inhibition at concentrations of 1.0 μM and 10.0 μM are given in the table along with IC50 (nM) values for selected examples.

As to `COc1ccc(-c2c(/C=C/c3cccc(OC)c3OCC3CC3)nc3sccn3c2=O)cc1` [Example 43, 7-[(E)-2-(2-Cyclopropylmethoxy-3-methoxyphenyl)-1-ethenyl]-6-(4-methoxy-phenyl)-5H-[1,3]thiazolo[3,2-a]pyrimidin-5-one], the inhibition at 1 µM turned out to be 63.4%, the inhibition at 10 µM amounted to 94% and the IC50 was in the range of 500 to 1000 nM.
Take `COc1cccc(/C=C/c2nc3sc(C)cn3c(=O)c2-c2ccc(OC(F)(F)F)cc2)c1OCC1CC1` [Example 75, 7-[(E)-2-(2-Cyclopropylmethoxy-3-methoxyphenyl)-1-ethenyl]-2-methyl-6-[4-(trifluoromethoxy)phenyl]-5H-[1,3]thiazolo[3,2-a]pyrimidin-5-one]: the inhibition at 1 µM stood at 86.3%, the inhibition at 10 µM is 90.4% and the concentration for half-maximal inhibition (IC50) is under 250 nM.
`COc1cccc(/C=C/c2nc3sccn3c(=O)c2-c2ccc(F)nc2)c1OCC1CC1` [Example 3]: the “Percentage inhibition at 1.0 μM” value amounted to 20.1% and the “Percentage inhibition at 10.0 μM” value worked out at 89.3%.
Take `COc1cccc(/C=C/c2nc3sccn3c(=O)c2-c2ccc(C(C)(C)C)cc2)c1OCC1CC1` [Example 4]: the inhibition at 1 µM came out at 66.5%, the inhibition at 10 µM came out at 84.7% and the IC50 was 250 to 500 nM.
As for `COc1cccc(/C=C/c2nc3sc(Cl)cn3c(=O)c2-c2ccc(N(C)C)cc2)c1OCC(C)(C)C` [Example 79, 2-Chloro-6-[4-(dimethylamino)phenyl]-7-[(E)-2-(2-(2,2-dimethylpropoxy)-3-methoxy-phenyl)vinyl]-5H-[1,3]thiazolo[3,2-a]pyrimidin-5-one], the inhibition at 1 µM came out at 57.9%.
`COc1cccc(/C=C/c2nc3sccn3c(=O)c2-c2ccc(OC(F)(F)F)cc2)c1OCC1CCC1` [Example 67, 7-[(E)-2-{2-Cyclobutylmethoxy-3-methoxyphenyl}-1-ethenyl]-6-[4-(trifluoromethoxy)-phenyl]-5H-[1,3]thiazolo[3,2-a]pyrimidin-5-one]: the inhibition at 1 µM was found to be 80.2%, the inhibition at 10 µM stood at 92.2% and the IC50 is under 250 nM.
On to `COc1cccc(/C=C/c2nc3sc4ccccc4n3c(=O)c2-c2ccc(C(F)(F)F)cc2)c1OCC1CC1` [Example 91, 2-{(E)-2-[(2-Cyclopropylmethoxy)-3-methoxyphenyl]-1-ethenyl}-3-(4-trifluoromethyl-phenyl)-4H-benzo[4,5][1,3]thiazolo-[3,2-a]pyrimidin-4-one], for which the “Percentage inhibition at 1.0 μM” value stood at 4.98% and the “Percentage inhibition at 10.0 μM” value is recorded as 19.85%.
On to `COc1cccc(/C=C/c2nc3sccn3c(=O)c2-c2cccc(C(F)(F)F)c2)c1OCC1CC1` [Example 40, 7-[(E)-2-(2-Cyclopropylmethoxy-3-methoxyphenyl)-1-ethenyl]-6-[3-(trifluoromethyl)phenyl]-5H-[1,3]thiazolo[3,2-a]pyrimidin-5-one], for which the inhibition at 1 µM came out at 4.6% and the inhibition at 10 µM was determined as 31.3%.
Take `COc1cccc(/C=C/c2nc3sccn3c(=O)c2-c2ccc(OC(F)(F)F)cc2)c1O` [Example 69, 7-[(E)-2-(2-Hydroxy-3-methoxyphenyl)-1-ethenyl]-6-[4-(trifluoromethoxy)phenyl]-5H-[1,3]thiazolo[3,2-a]pyrimidin-5-one]: the inhibition at 1 µM stood at 51.5% and the inhibition at 10 µM was 91.5%.
Regarding `COCCOc1c(/C=C/c2nc3sccn3c(=O)c2-c2ccc(OC(F)(F)F)cc2)cccc1OC` [Example 73, 7-[(E)-2-{3-Methoxy-2-(2-methoxyethoxy)phenyl}-1-ethenyl]-6-[4-(trifluoromethoxy)-phenyl]-5H-[1,3]thiazolo[3,2-a]pyrimidin-5-one], the inhibition at 1 µM is 79.2%, the inhibition at 10 µM was 94.9% and the IC50 was 250 to 500 nM.
Take `COc1cccc(/C=C/c2nc3sccn3c(=O)c2-c2ccc(C(F)(F)F)cc2)c1OCC1CCC1` [Example 34, 7-[(E)-2-(2-Cyclobutylmethoxy-3-methoxyphenyl)-1-ethenyl]-6-[4-(trifluoromethyl)phenyl]-5H-[1,3]thiazolo[3,2-a]pyrimidin-5-one]: the inhibition at 1 µM was found to be 43.1% and the inhibition at 10 µM worked out at 78.4%.
For `COc1cccc(/C=C/c2nc3sccn3c(=O)c2-c2ccc(C(F)(F)F)cc2)c1OCC(C)C` [Example 27, 7-[(E)-2-(2-Isobutoxy-3-methoxyphenyl)-1-ethenyl]-6-[4-(trifluoromethyl)phenyl]-5H-[1,3]thiazolo[3,2-a]pyrimidin-5-one], the inhibition at 1 µM came to 69.6%, the inhibition at 10 µM amounted to 88% and the IC50 is under 250 nM.
Turning to `COc1cccc(/C=C/c2nc3sccn3c(=O)c2-c2ccc(OC(F)(F)F)cc2)c1OCCCCF` [Example 56, 4-7-[(E)-2-{2-(4-Fluorobutoxy)-3-methoxyphenyl}-1-ethenyl]-6-[4-(trifluoromethoxy)phenyl]-5H-[1,3]thiazolo[3,2-a]pyrimidin-5-one], the “Percentage inhibition at 1.0 μM” value was 80.9%, the “Percentage inhibition at 10.0 μM” value stood at 93.5% and the IC50 lay in the range of 250 to 500 nM.
For `COCCOc1c(/C=C/c2nc3sccn3c(=O)c2-c2ccc(C(F)(F)F)cc2)cccc1OC` [Example 31, {7-[(E)-2-(2-Methoxyethoxy-3-methoxy)phenyl}vinyl]-6-[4-(trifluoromethyl)phenyl]-5H-[1,3]thiazolo[3,2-a]pyrimidin-5-one], the inhibition at 1 µM was found to be 66.9%, the inhibition at 10 µM was 97.2% and the IC50 lay within 250 to 500 nM.
For `COc1cccc(/C=C/c2nc3sc4ccccc4n3c(=O)c2-c2ccc(C#N)cc2)c1OCCCC#N` [Example 83, 4-(2-{(E)-2-[2-(3-Cyanopropoxy)-3-methoxyphenyl}-1-ethenyl}-4-oxo-4H-benzo[4,5]-[1,3]thiazolo-[3,2]pyrimidin-3-yl)benzonitrile], the “Percentage inhibition at 1.0 μM” value was determined as 23.6% and the “Percentage inhibition at 10.0 μM” value was 57.1%.
The corresponding values for `O=c1c(-c2ccc(OC(F)(F)F)cc2)c(/C=C/c2cccc(O)c2OCC2CC2)nc2sccn12` [Example 60] are 41.32% and 81.57%.
The matching figures for “7-[(E)-2-{(3-Cyanopropoxy)-3-methoxy}phenylvinyl]-6-[4-(trifluoromethoxy)phenyl]-5H-[1,3]thiazolo[3,2-a]pyrimidin-5-one [Example 74]”: 30.20% and 86.42%.
As for `N#CCCCOc1cccc(/C=C/c2nc3sccn3c(=O)c2-c2ccc(OC(F)(F)F)cc2)c1OCC1CC1` [Example 65, 7-{(E)-2-[2-(Cyclopropylmethoxy)-3-(3-cyanopropoxy)phenyl]-1-ethenyl}-6-(4-trifluoromethoxyphenyl)-5H-[1,3]thiazolo[3,2-a]pyrimidin-5-one], the inhibition at 1 µM stood at 15.4% and the inhibition at 10 µM was found to be 22%.
The corresponding values for `CCCOc1cccc(/C=C/c2nc3sccn3c(=O)c2-c2ccc(OC(F)(F)F)cc2)c1OCC1CC1` [Example 66, 7-{(E)-2-[2-(Cyclopropylmethoxy)-3-propoxyphenyl}-1-ethenyl]-6-(4-trifluoromethoxy-phenyl)-5H-[1,3]thiazolo[3,2-a]pyrimidin-5-one] are 23.4% and 34.1%.
